Values quoted from earlier work as cited in US20170037111A1, “Novel peptides and combination of peptides for use in immunotherapy against ovarian cancer and other cancers” (immatics biotechnologies GmbH, priority 2015, published 2017).

Test system: ovarian cancer
Conditions: clinical studies, phase as stated; cited from earlier work

Substance	clinical effect in ovarian cancer patients
Ipilimumab: anti-CTLA4 antibody, which enhances T cell activity	significant anti-tumor effects
MORAb-003: anti-folate receptor alpha antibody	limited clinical benefit
bevacizumab: anti-VEGF antibody	appears to be advantageous
catumaxomab	promising results
oregovomab	promising results
